What is called IC50 is the concentration at which inhibition is half-maximal. A low value points to greater potency.

SMILES strings stand for the structures.

This test concerns the target T1, RORc ligand binding domain (Homo sapiens, UniProt P51449).
T1 construct: host or cells: E. coli
T1 sequence (P51449 269-508 limits assumed): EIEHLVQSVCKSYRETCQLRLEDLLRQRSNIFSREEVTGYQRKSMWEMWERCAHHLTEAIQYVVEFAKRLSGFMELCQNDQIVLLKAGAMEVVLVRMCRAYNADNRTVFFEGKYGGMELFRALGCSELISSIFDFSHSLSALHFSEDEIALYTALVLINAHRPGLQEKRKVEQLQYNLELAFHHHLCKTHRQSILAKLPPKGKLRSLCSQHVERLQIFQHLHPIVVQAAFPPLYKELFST
Kind of test: In vitro RORc ligand binding assay (25-[3H]hydroxycholesterol displacement, filter binding). As to the method:
This assay was used to determine a compound's potency in inhibiting activity of RORc by determining, Kiapp, IC50, or percent inhibition values.
On day of the assay, 100 uL of 0.05% CHAPS (in deionized H2O) was added to all wells of the GFB Unifilter plate and allowed soak for 1 h. A wash buffer of 50 mM HEPES (pH 7.4), 150 mM NaCl, and 5 mM MgCl2 was prepared to wash the filter plate. To prepare an assay buffer, BSA was added to the wash buffer to reach 0.01% and DTT was added to reach 1 mM.
The 20× compound stocks were diluted in DMSO with Assay Buffer 4-fold to reach 5× the final test concentration in 25% DMSO (10 uL compound+30 uL Assay Buffer). Solutions were mixed by aspiration several times with a pipette set on 50 uL volume. For the assay, 10 uL of 5× compound stock solutions in 25% DMSO were added to the assay plate in duplicate.
For two point screening, 10 mM stock compound solutions were diluted in DMSO to obtain 200 uM (20× the high test concentration) and then diluted 10-fold further to reach 20 uM (20× the low test concentration). The 20× stocks were diluted 4-fold with Assay Buffer (10 uL compound+30 uL Assay Buffer) to reach 5× the test concentrations (50 uM and 5 uM) and 10 uL were added to two assay plates for the duplicate wells. With each concentration tested on 2 plates, each set of 80 compounds used 4 assay plates (1 uM and 10 uM, with n=2).
For 25-hydroxycholesterol in 25% DMSO/75% Assay Buffer; 10 uL per well was used for NSB samples. Wells for Total Binding and No Receptor sample determination contained 10 uL of 25% DMSO/75% Assay Buffer per well.
Add 20 uL to all wells to reach 6 nM final concentration in the assay.
Stock receptor solution was diluted in assay buffer to obtain 1.5 ug/mL in Assay Buffer. 20 uL was added to all wells. For No Receptor samples, 20 uL Assay Buffer was substituted for receptor solution.
Assay plates were 96-well polypropylene V-bottom plates. 10 uL of 5× compound in 25% DMSO/75% Assay Buffer was added to Test wells. 10 uL of 25% DMSO/75% Assay Buffer was added to Total Binding or No Receptor wells. 10 uL of 5 uM 25-hydroxycholesterol in 25% DMSO/75% Assay Buffer was added to NSB wells. […] 20 uL of 1.5 ug/mL RORc receptor was added to wells (or 40 uL Assay Buffer to No R wells). Following addition to the wells, the plates were incubated 3 h at 25° C.
Using a Packard Filtermate Harvester, the filter plate were washed 4 times following transfer of the incubated samples. Plates were dry-filtered completely (2 h at 50° C. or overnight at room temperature). 50 uL Microscint 0 was added to all wells and read on Topcount protocol Inverted.
`CC1(C)[C@H]2CC[C@]1([C@@H]1CN(CC(F)F)CCO1)c1nnc(-c3c(F)cccc3F)cc12` [Compound 83, (R)-4-(2,2-difluoroethyl)-2-((5R,8R)-3-(2,6-difluorophenyl)-9,9-dimethyl-5,6,7,8-tetrahydro-5,8-methanocinnolin-8-yl)morpholine] came in with an IC50 of 356 nM.
Take `CC[C@@H](O[C@@]12CC[C@@H](c3cc(-c4c(F)cccc4F)nnc31)C2(C)C)C(=O)NCCCO` [Compound 105, (R)-2-(((5S,8R)-3-(2,6-difluorophenyl)-9,9-dimethyl-5,6,7,8-tetrahydro-5,8-methanocinnolin-8-yl)oxy)-N-(3-hydroxypropyl)butanamide]: the concentration for half-maximal inhibition (IC50) stood at 33.9 nM.
In turn, `Cc1n[nH]c(C(=O)N2CCO[C@@H]([C@@]34CC[C@@H](c5cc(-c6c(F)cccc6F)nnc53)C4(C)C)C2)n1` [Compound 117, [2-[5-(2,6-difluorophenyl)-11,11-dimethyl-3,4-diazatricyclo[6.2.1.02,7]undeca-2,4,6-trien-1-yl]morpholin-4-yl]-(3-methyl-1H-1,2,4-triazol-5-yl)methanone] returned a half-inhibitory concentration (IC50) of 13 nM. Against the preceding compound, the IC50 is about 2.6-fold lower.
Compound `CC[C@H](CO)O[C@@]12CC[C@@H](c3cc(-c4c(F)cccc4F)nnc31)C2(C)C` [Compound 35, (R)-2-(((5S,8R)-3-(2,6-difluorophenyl)-9,9-dimethyl-5,6,7,8-tetrahydro-5,8-methanocinnolin-8-yl)oxy)butan-1-ol] displayed a half-maximal inhibitory concentration (IC50) of 19.8 nM. Against the preceding compound, the IC50 is about 1.5-fold higher.
`CC[C@@H](O[C@@]12CC[C@@H](c3cc(-c4c(F)cccc4F)nnc31)C2(C)C)c1nnc(C)o1` [Compound 20, 2-((R)-1-(((5S,8R)-3-(2,6-difluorophenyl)-9,9-dimethyl-5,6,7,8-tetrahydro-5,8-methanocinnolin-8-yl)oxy)propyl)-5-methyl-1,3,4-oxadiazole]: the half-inhibitory concentration (IC50) was determined as 24.1 nM.
To `CC[C@@H](O[C@@]12CC[C@@H](c3cc(-c4c(F)cccc4F)nnc31)C2(C)C)C(=O)NCCS(C)(=O)=O` [Compound 102, (R)-2-(((5S,8R)-3-(2,6-difluorophenyl)-9,9-dimethyl-5,6,7,8-tetrahydro-5,8-methanocinnolin-8-yl)oxy)-N-(2-(methylsulfonyl)ethyl)butanamide] belongs 61.5 nM; to `CC1(C)[C@H]2CC[C@]1([C@H]1CCCN(C(=O)NC3COC3)C1)c1nnc(-c3c(F)cccc3F)cc12` [Compound 157, 3-[5-(2,6-difluorophenyl)-11,11-dimethyl-3,4-diazatricyclo[6.2.1.02,7]undeca-2,4,6-trien-1-yl]-N-(oxetan-3-yl)piperidine-1-carboxamide], 6.1 nM.
For `CC1(C)[C@H]2CC[C@]1([C@H]1CN(Cc3ccccc3)CCO1)c1nnc(-c3c(F)cccc3F)cc12` [Compound 61, (S)-4-benzyl-2-((5R,8R)-3-(2,6-difluorophenyl)-9,9-dimethyl-5,6,7,8-tetrahydro-5,8-methanocinnolin-8-yl)morpholine] the value was 172 nM; for `C[C@@H](O[C@@]12CC[C@@H](c3cc(-c4c(F)cccc4F)nnc31)C2(C)C)C(N)=O` [Compound 42, (R)-2-(((5S,8R)-3-(2,6-difluorophenyl)-9,9-dimethyl-5,6,7,8-tetrahydro-5,8-methanocinnolin-8-yl)oxy)propanamide], 14.4 nM; for `CC1(C)[C@H]2CC[C@]1([C@H]1CCCN(C(=O)c3cccnn3)C1)c1nnc(-c3c(F)cccc3F)cc12` [Compound 168, [3-[5-(2,6-difluorophenyl)-11,11-dimethyl-3,4-diazatricyclo[6.2.1.02,7]undeca-2,4,6-trien-1-yl]-1-piperidyl]-pyridazin-3-yl-methanone], 7.1 nM.
In turn, `CC(=O)N1CCN(C)[C@H]([C@@]23CC[C@@H](c4cc(-c5c(F)cccc5F)nnc42)C3(C)C)C1` [Compound 177, 1-[3-[5-(2,6-difluorophenyl)-11,11-dimethyl-3,4-diazatricyclo[6.2.1.02,7]undeca-2,4,6-trien-1-yl]-4-methyl-piperazin-1-yl]ethanone] came in with a 50% inhibitory concentration (IC50) of 15 nM.
Compound `CC1(C)[C@H]2CC[C@]1([C@@H]1CN(C3=NC(CO)CO3)CCO1)c1nnc(-c3c(F)cccc3F)cc12` (stereo in doubt) [Compound 140, [2-[2-[5-(2,6-difluorophenyl)-11,11-dimethyl-3,4-diazatricyclo[6.2.1.02,7]undeca-2,4,6-trien-1-yl]morpholin-4-yl]-4,5-dihydrooxazol-4-yl]methanol] came in with an IC50 of 7.6 nM.
Consider `CC1(C)[C@H]2CC[C@]1([C@@H]1CN(C(=O)c3ccc(=O)[nH]n3)CCO1)c1nnc(-c3c(F)cccc3F)cc12` [Compound 89, 6-((R)-2-((5R,8R)-3-(2,6-difluorophenyl)-9,9-dimethyl-5,6,7,8-tetrahydro-5,8-methanocinnolin-8-yl)morpholine-4-carbonyl)pyridazin-3(2H)-one], for which the IC50 was 237 nM. Compared with the last compound, the IC50 is about 31-fold higher.
Take `CC1(C)[C@H]2CC[C@]1([C@@H]1CN(C(=O)CO)CCO1)c1nnc(-c3c(F)cccc3F)cc12` [Compound 75, 1-((R)-2-((5R,8R)-3-(2,6-difluorophenyl)-9,9-dimethyl-5,6,7,8-tetrahydro-5,8-methanocinnolin-8-yl)morpholino)-2-hydroxyethanone]: the half-maximal inhibitory concentration (IC50) worked out at 234 nM.
The compound `CC(=O)N1CCC[C@H]([C@@]23CC[C@@H](c4cc(-c5c(F)cccc5F)nnc42)C3(C)C)C1` [Compound 98, 1-((R)-3-((5R,8R)-3-(2,6-difluorophenyl)-9,9-dimethyl-5,6,7,8-tetrahydro-5,8-methanocinnolin-8-yl)piperidin-1-yl)ethanone] came in with an IC50 of 139 nM. Compared with the last compound, the IC50 is about 1.7-fold lower.
To `CC(C)NC(=O)N1CCC[C@H]([C@@]23CC[C@@H](c4cc(-c5c(F)cccc5F)nnc42)C3(C)C)C1` [Compound 137, 3-[5-(2,6-difluorophenyl)-11,11-dimethyl-3,4-diazatricyclo[6.2.1.02,7]undeca-2,4,6-trien-1-yl]-N-isopropyl-piperidine-1-carboxamide] belongs 42 nM.
`CC[C@@H](O[C@@]12CC[C@@H](c3cc(-c4c(F)cccc4F)nnc31)C2(C)C)C(=O)NC[C@@H](O)CO` [Compound 54, (R)-2-(((5S,8R)-3-(2,6-difluorophenyl)-9,9-dimethyl-5,6,7,8-tetrahydro-5,8-methanocinnolin-8-yl)oxy)-N-((R)-2,3-dihydroxypropyl)butanamide] showed a concentration for half-maximal inhibition (IC50) of 75.4 nM.
On to `CC1(C)[C@H]2CC[C@]1([C@H]1CCCN(S(C)(=O)=O)C1)c1nnc(-c3c(F)cccc3F)cc12` [Compound 95, (5R,8R)-3-(2,6-difluorophenyl)-9,9-dimethyl-8-((R)-1-(methylsulfonyl)piperidin-3-yl)-5,6,7,8-tetrahydro-5,8-methanocinnoline], for which the IC50 was 344 nM.
In turn, `CC[C@@H](O[C@@]12CC[C@@H](c3cc(-c4c(F)cccc4F)nnc31)C2(C)C)C(=O)NC[C@H](C)O` [Compound 51, (R)-2-(((5S,8R)-3-(2,6-difluorophenyl)-9,9-dimethyl-5,6,7,8-tetrahydro-5,8-methanocinnolin-8-yl)oxy)-N-((S)-2-hydroxypropyl)butanamide] showed an IC50 of 61.5 nM.
`CC[C@@H](O[C@@]12CC[C@@H](c3cc(-c4c(F)cccc4F)nnc31)C2(C)C)C(=O)NCC1(O)COC1` [Compound 57, (R)-2-(((5S,8R)-3-(2,6-difluorophenyl)-9,9-dimethyl-5,6,7,8-tetrahydro-5,8-methanocinnolin-8-yl)oxy)-N-((3-hydroxyoxetan-3-yl)methyl)butanamide]: the half-maximal inhibitory concentration (IC50) was 44.5 nM.
To `CCOC(=O)c1cn2c([C@@]34CC[C@@H](c5cc(-c6c(F)cccc6F)nnc53)C4(C)C)cccc2n1` [Compound 108, ethyl 5-((5R,8S)-3-(2,6-difluorophenyl)-9,9-dimethyl-5,6,7,8-tetrahydro-5,8-methanocinnolin-8-yl)imidazo[1,2-a]pyridine-2-carboxylate] belongs 96 nM.

Source of the values: patent US9994551B2, “Pyridazine derivatives as RORc modulators” (Genentech, Inc., priority 2015, dated 2018).
